Test results from US20260069588A1, “VEPDEGESTRANT FOR USE IN TREATING CANCER” (Arvinas Operation, Inc., priority 2022, published 2026).

Experiment: FIH Study Part A dose escalation: adverse events
Text: TEAEs and TRAEs from the clinical study database were coded to system organ class and preferred term using MedDRA version 22.0 and SAEs from the centralized safety database were coded using MedDRA version 25.0. The severity of adverse events was graded according to the NCI CTCAE version 5.0.

O=C1CC[C@H](N2Cc3cc(N4CCN(CC5CCN(c6ccc([C@@H]7c8ccc(O)cc8CC[C@@H]7c7ccccc7)cc6)CC5)CC4)ccc3C2=O)C(=O)N1 [Compound A, (S)-3-(5-(4-((1-(4-((1R,2S)-6-hydroxy-2-phenyl-1,2,3,4-tetrahydronaphthalen-1-yl)phenyl)piperidin-4-yl)methyl)piperazin-1-yl)-1-oxoisoindolin-2-yl)piperidine-2,6-dione]
TEAE Alanine aminotransferase increased (30 mg (N=3)): 0 n
TEAE Arthralgia (30 mg (N=3)): 0 n
TEAE Aspartate aminotransferase increased (30 mg (N=3)): 0 n
TEAE Back pain (30 mg (N=3)): 0 n
TEAE Constipation (30 mg (N=3)): 0 n
TEAE Decreased appetite (30 mg (N=3)): 0 n
TEAE Diarrhea (30 mg (N=3)): 0 n
TEAE Dizziness (30 mg (N=3)): 0 n
TEAE Fatigue (30 mg (N=3)): 0 n
TEAE Headache (30 mg (N=3)): 0 n
TEAE Hot flush (30 mg (N=3)): 1 n
TEAE Hyperglycemia (30 mg (N=3)): 0 n
TEAE Insomnia (30 mg (N=3)): 1 n
TEAE Nausea (30 mg (N=3)): 0 n
TEAE Pain in extremity (30 mg (N=3)): 0 n
TEAE Vomiting (30 mg (N=3)): 0 n
TRAE Arthralgia (30 mg (N=3)): 0 n
TRAE Constipation (30 mg (N=3)): 0 n
TRAE Decreased appetite (30 mg (N=3)): 0 n
TRAE Fatigue (30 mg (N=3)): 0 n
TRAE Hot flush (30 mg (N=3)): 0 n
TRAE Nausea (30 mg (N=3)): 0 n
TRAE Vomiting (30 mg (N=3)): 0 n
TEAE Alanine aminotransferase increased (60 mg (N=3)): 0 n
TEAE Arthralgia (60 mg (N=3)): 1 n
TEAE Aspartate aminotransferase increased (60 mg (N=3)): 0 n
TEAE Back pain (60 mg (N=3)): 0 n
TEAE Constipation (60 mg (N=3)): 1 n
TEAE Decreased appetite (60 mg (N=3)): 0 n
TEAE Diarrhea (60 mg (N=3)): 0 n
TEAE Dizziness (60 mg (N=3)): 1 n
TEAE Fatigue (60 mg (N=3)): 1 n
TEAE Headache (60 mg (N=3)): 1 n
TEAE Hot flush (60 mg (N=3)): 0 n
TEAE Hyperglycemia (60 mg (N=3)): 0 n
TEAE Insomnia (60 mg (N=3)): 0 n
TEAE Nausea (60 mg (N=3)): 2 n
TEAE Pain in extremity (60 mg (N=3)): 1 n
TEAE Vomiting (60 mg (N=3)): 0 n
TRAE Arthralgia (60 mg (N=3)): 1 n
TRAE Constipation (60 mg (N=3)): 0 n
TRAE Decreased appetite (60 mg (N=3)): 0 n
TRAE Fatigue (60 mg (N=3)): 1 n
TRAE Hot flush (60 mg (N=3)): 0 n
TRAE Nausea (60 mg (N=3)): 2 n
TRAE Vomiting (60 mg (N=3)): 0 n
TEAE Alanine aminotransferase increased (100 mg (N=9)): 0 n
TEAE Arthralgia (100 mg (N=9)): 2 n
TEAE Aspartate aminotransferase increased (100 mg (N=9)): 0 n
TEAE Back pain (100 mg (N=9)): 1 n
TEAE Constipation (100 mg (N=9)): 2 n
TEAE Decreased appetite (100 mg (N=9)): 2 n
TEAE Diarrhea (100 mg (N=9)): 4 n
TEAE Dizziness (100 mg (N=9)): 0 n
TEAE Fatigue (100 mg (N=9)): 2 n
TEAE Headache (100 mg (N=9)): 1 n
TEAE Hot flush (100 mg (N=9)): 1 n
TEAE Hyperglycemia (100 mg (N=9)): 0 n
TEAE Insomnia (100 mg (N=9)): 0 n
TEAE Nausea (100 mg (N=9)): 2 n
TEAE Pain in extremity (100 mg (N=9)): 0 n
TEAE Vomiting (100 mg (N=9)): 1 n
TRAE Arthralgia (100 mg (N=9)): 1 n
TRAE Constipation (100 mg (N=9)): 1 n
TRAE Decreased appetite (100 mg (N=9)): 2 n
TRAE Fatigue (100 mg (N=9)): 1 n
TRAE Hot flush (100 mg (N=9)): 1 n
TRAE Nausea (100 mg (N=9)): 1 n
TRAE Vomiting (100 mg (N=9)): 0 n
TEAE Alanine aminotransferase increased (120 mg (N=7)): 1 n
TEAE Arthralgia (120 mg (N=7)): 2 n
TEAE Aspartate aminotransferase increased (120 mg (N=7)): 3 n
TEAE Back pain (120 mg (N=7)): 1 n
TEAE Constipation (120 mg (N=7)): 2 n
TEAE Decreased appetite (120 mg (N=7)): 3 n
TEAE Diarrhea (120 mg (N=7)): 0 n
TEAE Dizziness (120 mg (N=7)): 1 n
TEAE Fatigue (120 mg (N=7)): 0 n
TEAE Headache (120 mg (N=7)): 2 n
TEAE Hot flush (120 mg (N=7)): 1 n
TEAE Hyperglycemia (120 mg (N=7)): 1 n
TEAE Insomnia (120 mg (N=7)): 1 n
TEAE Nausea (120 mg (N=7)): 2 n
TEAE Pain in extremity (120 mg (N=7)): 2 n
TEAE Vomiting (120 mg (N=7)): 2 n
TRAE Arthralgia (120 mg (N=7)): 2 n
TRAE Constipation (120 mg (N=7)): 1 n
TRAE Decreased appetite (120 mg (N=7)): 3 n
TRAE Fatigue (120 mg (N=7)): 0 n
TRAE Hot flush (120 mg (N=7)): 0 n
TRAE Nausea (120 mg (N=7)): 2 n
TRAE Vomiting (120 mg (N=7)): 2 n
TEAE Alanine aminotransferase increased (180 mg (N=7)): 2 n
TEAE Arthralgia (180 mg (N=7)): 2 n
TEAE Aspartate aminotransferase increased (180 mg (N=7)): 2 n
TEAE Back pain (180 mg (N=7)): 0 n
TEAE Constipation (180 mg (N=7)): 1 n
TEAE Decreased appetite (180 mg (N=7)): 0 n
TEAE Diarrhea (180 mg (N=7)): 0 n
TEAE Dizziness (180 mg (N=7)): 0 n
TEAE Fatigue (180 mg (N=7)): 2 n
TEAE Headache (180 mg (N=7)): 0 n
TEAE Hot flush (180 mg (N=7)): 0 n
TEAE Hyperglycemia (180 mg (N=7)): 0 n
TEAE Insomnia (180 mg (N=7)): 0 n
TEAE Nausea (180 mg (N=7)): 2 n
TEAE Pain in extremity (180 mg (N=7)): 1 n
TEAE Vomiting (180 mg (N=7)): 0 n
TRAE Arthralgia (180 mg (N=7)): 1 n
TRAE Constipation (180 mg (N=7)): 0 n
TRAE Decreased appetite (180 mg (N=7)): 0 n
TRAE Fatigue (180 mg (N=7)): 1 n
TRAE Hot flush (180 mg (N=7)): 0 n
TRAE Nausea (180 mg (N=7)): 2 n
TRAE Vomiting (180 mg (N=7)): 0 n
TEAE Alanine aminotransferase increased (200 mg (N=8)): 2 n
TEAE Arthralgia (200 mg (N=8)): 1 n
TEAE Aspartate aminotransferase increased (200 mg (N=8)): 3 n
TEAE Back pain (200 mg (N=8)): 1 n
TEAE Constipation (200 mg (N=8)): 2 n
TEAE Decreased appetite (200 mg (N=8)): 0 n
TEAE Diarrhea (200 mg (N=8)): 1 n
TEAE Dizziness (200 mg (N=8)): 0 n
TEAE Fatigue (200 mg (N=8)): 1 n
TEAE Headache (200 mg (N=8)): 1 n
TEAE Hot flush (200 mg (N=8)): 1 n
TEAE Hyperglycemia (200 mg (N=8)): 1 n
TEAE Insomnia (200 mg (N=8)): 1 n
TEAE Nausea (200 mg (N=8)): 3 n
TEAE Pain in extremity (200 mg (N=8)): 0 n
TEAE Vomiting (200 mg (N=8)): 1 n
TRAE Arthralgia (200 mg (N=8)): 1 n
TRAE Constipation (200 mg (N=8)): 2 n
TRAE Decreased appetite (200 mg (N=8)): 0 n
TRAE Fatigue (200 mg (N=8)): 0 n
TRAE Hot flush (200 mg (N=8)): 1 n
